Here are results for 23 compounds from patent US20210330611A1, “THERAPY FOR NEUROLOGICAL DISEASES/DISORDERS” (priority 2020, published 2021).

Counter-ions that a name gives are not always drawn. Like-named read-outs stand apart in the source and are kept apart here.

The test system of series [1] is primary rat microglia. Description: Cell toxicity (dead cells, size <150 μm2) in coated fibrin (cFib) assay.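 Note: share of dead cells sized under 150 µm2 at 10 µM in fibrin-stimulated microglia HTS.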 Conditions: primary microglia HTS, fibrin assay, dead cells (size <150 μm2).
Series [2] relates to primary rat microglia.
In series [3] the test system is LPS-induced microglia activation. Description: Image-based assay of LPS-induced microglia activation (HTS and dose response). The format is cell-based, rat. The following applies: primary microglia HTS, LPS stimulation, compounds at 10 μM; for inhibition at 10 µM: Rattus norvegicus, Microglia, read-out: LPS % inhibition.
In series [4] the test system is fibrin- and LPS-induced microglia activation. Description: cells. The format is cell-based, rat. Conditions: quadrant by fibrin and LPS inhibition, HTS at 10 μM.
Series [5] deals with fibrin-induced microglia activation. Kind of series: Image-based assay of fibrin-induced microglia activation (HTS and dose response). Conditions: primary microglia HTS, fibrin stimulation, compounds at 10 μM; for inhibition at 10 µM: Rattus norvegicus, Microglia, read-out: Fibrin % inhibition. The series is classed as cell-based, rat.

Consider `CC(=O)OC1CN2CCC1CC2.Cl` (stereo not shown) [Aceclidine Hydrochloride, Aceclidine], for which the “Fibrin % cell toxicity” value in series [1] came to 1%. Also, the “LPS % cell toxicity” value in series [2] amounted to 0%. Further, the LPS % inhibition in series [3] was 0%. Further, the “Quadrant (FIG. 5b)” value in series [4] is recorded as “Q4”. In addition, the Fibrin % inhibition in series [5] is listed as 2%.
For the compound `CC(=O)NC(CCC(N)=O)C(=O)O` (stereo not shown) [Aceglutamide], the “Fibrin % cell toxicity” value in series [1] was 1%. In series [2] (rat), the “LPS % cell toxicity” value was 0%. Moreover, the results for the inhibition at 10 µM in series [3] and in series [5] were 20% and 36%, respectively. Further, in series [4], the “Quadrant (FIG. 5b)” value is on record as “Q4”.
For `COc1ccc2c(c1)c(CC(=O)OCC(=O)O)c(C)n2C(=O)c1ccc(Cl)cc1` [Acemetacin], the “Fibrin % cell toxicity” value in series [1] came out at 1%. For the same compound, the “LPS % cell toxicity” value in series [2] (rat) was found to be 0%. For the same compound, the inhibition at 10 µM in series [3] was 17%; in series [5] it was -16%. For the same compound, in series [4], the “Quadrant (FIG. 5b)” value was “Q4”.
With `CC(=O)CC(c1ccc([N+](=O)[O-])cc1)c1c(O)c2ccccc2oc1=O` (stereo not shown) [Acenocoumarol, Acenocoumarin], the “Fibrin % cell toxicity” value in series [1] was determined as 0%. Besides, in series [2], the “LPS % cell toxicity” value is listed as 0%. The compound further displayed an LPS % inhibition in series [3] of 14%. In addition, the “Quadrant (FIG. 5b)” value in series [4] is recorded as “Q4”. In series [5], the Fibrin % inhibition is reported as −38%.
Consider `CC(=O)c1ccc2c(c1)N(CCCN(C)C)c1ccccc1S2` [Acepromazine], for which, in series [1], the “Fibrin % cell toxicity” value was determined as 1%. In addition, the “LPS % cell toxicity” value in series [2] (rat) is on record as 1%. Moreover, the inhibition at 10 µM in series [3] stood at 31%; in series [5], 9%. The “Quadrant (FIG. 5b)” value in series [4] is given as “Q4”.
On to `CC(=O)Nc1ccc(OC(=O)c2ccccc2O)cc1` [Acetaminosalol], for which, in series [1], the “Fibrin % cell toxicity” value is 1%. For the same compound, the “LPS % cell toxicity” value in series [2] (rat) was 1%. Moreover, the inhibition at 10 µM in series [3] is 20%; in series [5], -15%. For the same compound, the “Quadrant (FIG. 5b)” value in series [4] is “Q4”.
Regarding `CC(=O)Nc1cc([As](=O)(O)O)ccc1O` [Acetarsol], the “Fibrin % cell toxicity” value in series [1] turned out to be 0%. Also, the “LPS % cell toxicity” value in series [2] (rat) stood at 0%. Besides, the figures for the inhibition at 10 µM in series [3] and in series [5] were 13% and -12%, respectively. The “Quadrant (FIG. 5b)” value in series [4] is “Q4”.
For the compound `CC(=O)NO` [Acetohydroxamic Acid], in series [1], the “Fibrin % cell toxicity” value came to 0%. The “LPS % cell toxicity” value in series [2] (rat) turned out to be 0%. Besides, the inhibition at 10 µM in series [3] is 12%; in series [5], -3%. Also, the “Quadrant (FIG. 5b)” value in series [4] is given as “Q4”.
For the compound `CC(=O)Nc1c(I)cc(I)c(C(=O)O)c1I` [Acetrizoic acid], the “Fibrin % cell toxicity” value in series [1] worked out at 1%. The “LPS % cell toxicity” value in series [2] (rat) turned out to be 0%. The inhibition at 10 µM worked out at 9% in series [3] and 14% in series [5]. The “Quadrant (FIG. 5b)” value in series [4] is “Q4”.
The corresponding values for `CC(=O)N[C@@H](CC(C)C)C(=O)O` [Acetyl-l-leucine] are 5%, 3%, 45%, -10% and “Q4”.
For the compound `CC(=O)Oc1ccccc1C(=O)O` [Acetylsalicylic acid], the “Fibrin % cell toxicity” value in series [1] is 1%. The “LPS % cell toxicity” value in series [2] (rat) was found to be 0%. Besides, the figures for the inhibition at 10 µM in series [3] and in series [5] were 17% and -21%, respectively. The “Quadrant (FIG. 5b)” value in series [4] is “Q4”.
With `CC(=O)NCCCCCC(=O)O` [Acexamic Acid], the “Fibrin % cell toxicity” value in series [1] is recorded as 1%. Besides, the “LPS % cell toxicity” value in series [2] (rat) came to 0%. Further, the figures for the inhibition at 10 µM in series [3] and in series [5] were 13% and -25%, respectively. In addition, in series [4], the “Quadrant (FIG. 5b)” value is on record as “Q4”.
For `Nc1nc2c(ncn2COCCO)c(=O)[nH]1` [Aciclovir], the “Fibrin % cell toxicity” value in series [1] came to 1%. The “LPS % cell toxicity” value in series [2] (rat) was 1%. For the same compound, the inhibition at 10 µM in series [3] is 3%; in series [5], -20%. Besides, the “Quadrant (FIG. 5b)” value in series [4] is reported as “Q4”.
Consider `Cc1cnc(C(=O)O)c[n+]1[O-]` [Acipimox], for which, in series [1], the “Fibrin % cell toxicity” value amounted to 1%. Further, the “LPS % cell toxicity” value in series [2] (rat) was found to be 0%. The inhibition at 10 µM in series [3] is 20%; in series [5] it was -11%. The “Quadrant (FIG. 5b)” value in series [4] is recorded as “Q4”.
The corresponding values for `CCN1C[C@]2(COC)[C@H](O)C[C@H](OC)[C@@]34[C@@H]5C[C@@]6(O)[C@H](OC(=O)c7ccccc7)[C@@H]5[C@@](OC(C)=O)([C@@H]([C@H](OC)[C@H]23)[C@@H]14)[C@@H](O)[C@@H]6OC` [Aconitine] are 0%, 0%, 12%, -23% and “Q4”.
As for `CC(=O)Nc1ccc(CC(=O)O)cc1` [Actarit], the “Fibrin % cell toxicity” value in series [1] is 1%. Besides, the “LPS % cell toxicity” value in series [2] (rat) is 0%. Further, the inhibition at 10 µM is 9% in series [3] and 11% in series [5]. Moreover, the “Quadrant (FIG. 5b)” value in series [4] is listed as “Q4”.
As for `COc1ccc(-c2ccc3cc(C(=O)O)ccc3c2)cc1C12CC3CC(CC(C3)C1)C2` [Adapalene], the “Fibrin % cell toxicity” value in series [1] is 2%. Besides, the “LPS % cell toxicity” value in series [2] (rat) is recorded as 4%. Besides, the results for the inhibition at 10 µM in series [3] and in series [5] were 45% and -12%, respectively. Besides, the “Quadrant (FIG. 5b)” value in series [4] is on record as “Q4”.
For the compound `Nc1ncnc2nc[nH]c12` [Adenine], the “Fibrin % cell toxicity” value in series [1] was 1%. Also, in series [2] (rat), the “LPS % cell toxicity” value was 1%. Also, the figures for the inhibition at 10 µM in series [3] and in series [5] were 22% and -7%, respectively. Besides, the “Quadrant (FIG. 5b)” value in series [4] was “Q4”.
With `Nc1ncnc2c1ncn2[C@@H]1O[C@H](COP(=O)(O)O)[C@@H](O)[C@H]1O` [Adenosine Phosphate], the “Fibrin % cell toxicity” value in series [1] was 1%. In addition, the “LPS % cell toxicity” value in series [2] (rat) was 2%. This compound also came in with an LPS % inhibition in series [3] (10 µM) of 31%. For the same compound, the “Quadrant (FIG. 5b)” value in series [4] is listed as “Q4”. In addition, the Fibrin % inhibition in series [5] (10 µM) amounted to 6%.
Turning to `Nc1ncnc2c1ncn2[C@@H]1O[C@H](COP(=O)(O)O)[C@@H](O)[C@H]1O` [Adenosine monophosphate], the “Fibrin % cell toxicity” value in series [1] was 1%. Besides, the “LPS % cell toxicity” value in series [2] (rat) worked out at 0%. The LPS % inhibition in series [3] (10 µM) was found to be 4%. In series [4], the “Quadrant (FIG. 5b)” value was “Q4”. In addition, in series [5] (10 µM), the Fibrin % inhibition is −30%.
With `Nc1ncnc2c1ncn2[C@@H]1O[C@H](CO)[C@@H](O)[C@H]1O` [Adenosine], the “Fibrin % cell toxicity” value in series [1] is on record as 1%. Also, in series [2] (rat), the “LPS % cell toxicity” value amounted to 1%. Also, the inhibition at 10 µM was 3% in series [3] and -6% in series [5]. Besides, the “Quadrant (FIG. 5b)” value in series [4] is “Q4”.
As to `CCN(CC)CCOC(=O)C(c1ccccc1)c1ccccc1` [Adiphenine Hydrochloride], in series [1], the “Fibrin % cell toxicity” value is 1%. The “LPS % cell toxicity” value in series [2] (rat) stood at 0%. For the same compound, the inhibition at 10 µM is 12% in series [3] and -30% in series [5]. Also, the “Quadrant (FIG. 5b)” value in series [4] was “Q4”.
On to `CNCC(=O)c1ccc(O)c(O)c1.Cl` [Adrenolone Hydrochloride], for which the “Fibrin % cell toxicity” value in series [1] is reported as 0%. The “LPS % cell toxicity” value in series [2] worked out at 0%. The LPS % inhibition in series [3] is reported as 32%. Besides, the “Quadrant (FIG. 5b)” value in series [4] is reported as “Q4”. In addition, the Fibrin % inhibition in series [5] came out at 28%.
